In data set [1] the target is T1, interaction between Supt4h and NGN (subunit of Supt5h) (Homo sapiens, UniProt P63272).
T1 construct: expressed in transfected cells
Kind of data set: split Gaussia luciferase complementation assay (M2-8 cells). It counts as cell-based. To be noted: for IC50: M2-8 cells, 24 hr treatment. How it is done:
1. Slit Gaussia Luciferase Complementation Assay […]
i pNBR-X1-Supt4-Gluc1 and pNEBR-X1-NGN-Guc2
The HA-Supt4hand Flag-NGN fragments are amplified by PR using the plasmid pHA-Supt4h-YC and pFlag-NGN-YN and sub-cloned individually into pcDNA3.1-Gluc1 and pcDNA3.1-GIuc2 (described in “A highly sensitive protein-protein interaction assay based on Gausssia Luciferase” published at Nat Methods. 2006 December; 3(12):977-9.Epub 2006 Nov. 12). Then HA-Supt4h-Gluc1 and Flag-NGN-Gluc2 are amplified by PCR and inserted to pNEBR-X1-Hygro (New England BioLabs), which contain RheoSwitch responsive element under the control of RheoSwitch ligand. […]
ii: pNEBR-X1-Supt4h-G1-NGN-G2
PCR products containing the sequence from 5XRE to polyA in pNEBR-X1-NGN-G2 are inserted to pNEBR-X1-Supt4h-G1 at Pcil site to generate Supt4h-G1 and NGN-G2 bidirectional under their own RheoSwitch responsive element and polyA in the same plasmid. […]
b. Stable Cloned Cell Line i: 293-R1 is a cloned cell which is engineered to constitutively express RSL1 receptor/activator by transfecting HEK 293 cells with pNEBR-R1 plasmid (New England BioLabs) and selected with Blasticidin. […]
ii: M2-8 is a cloned 293-R cell which can inducibly express pNEBR-X1-Supt4h-G1-NGN-G2 by addition of RSL1. Two point mutations (M431 and M1101) are introduced to the GL1 and GL2 for better stability according to “A high-throughput cell-based Gaussia luciferase reporter assay for identifying modulators of fibulin-3 secretion” published on J Biomol Screen. 2013 July; 18(6):647-58. The cell line is selected by Hygromycin. […]
c. Cell Culture and Transfection Condition
All the HEK-293 cells and derivative cell clones are maintained in DMEM containing 10% FBS plus corresponding antibiotics (250 μg/ml hygromycin B, 10 μg/ml blasticidin or both) at 37° C., 5% CO2. d. Bioluminescence Assay in Cell Lysates
For stable cell M2-8, the cells are plated into 96 well white plate directly. 24 hours later, RheoSwitch ligand together with/without test compound is added to the cells for induction/drug treatment. After 24 hr, the cells are washed with PBS and the plate was put in −20° C. freezer for overnight. After taking out the plate from freezer, lysis buffer (30 mM Tris-HCl, pH 8.0, 5 mM NaCl, 0.1% Triton X-100) with 10 μg/ml native coelenterazine (Nanolight Technology) is immediately added to the cells. The cells are lysed at room temperature for one hour in dark. After shaking for about 1 min, the signal intensities (integrated 100 ms) from the plate were read on Tecan Infinite M200 or M1000.
The split gaussia luciferase complementation assay measures the interaction between Sup4h and NGN. NGN is the subunit of Supt5h that binds to Supt4h. […] Therefore, administration of HD143 results in decreased production of mutant proteins encoded by genes that include mutant nucleotide repeats.

Data set [2] is described as follows: brain to plasma ratio after oral dose. Particulars: at 1 hour following a 5 mg/kg oral dose in rats. It counts as in vivo.
In a further data set the test system is mutant HTT protein. The experiment in a line: mutant HTT activity assay in induced pluripotent stem cells (Western blot). It counts as cell-based, human. Particulars: HD patient iPSC; for effect on mutant HTT protein level in iPSC derived from a Huntington Disease patient: one day treatment, Western blot. How it is done: 3. Mutant HTT Activity Assay in Induced Pluripotent Stem Cells (iPSC)
Huntington disease patient iPSCs (ND36999 from Coriell Institute) were detached into single cells by Accutase (AT104 from Accutase) and plated on a 24-well plate coated with Matrigel (354277 from Corning). When the cells' confluency reaches about 70%, compounds are added to the cell culture medium StemMACS (130104368 from MiltenyiBiotec) and incubated with the cells for one day. Then the medium is removed and the cells are washed with PBS. After all liquid is removed, the plate is put in −80° C. for overnight. After taking out the plate from freezer, lysis buffer (30 mM Tris-HCl, pH 8.0, 5 mM NaCl, 0.1% Triton X-100) with complete proteinase inhibitor cocktail (5892791001 from Sigma-Aldrich) is immediately added to the cells. Cell samples are lysed on ice for 10 minutes. The supernatants from spinning (14 k rpm for 10 min) are collected. The protein concentrations are determined by BCA assay (Pierce, ThermoFisher). Equal amounts of protein are loaded onto 4-12% gel. After electrophoresis, the gels are transferred to nitrocellulose membranes by wet transfer at 35V for 16 hr. The protein level of mutant HTT, total HTT and tubulin are determined by immunoblotting with anti-poly Glutamine (MAB1574 from Millipore), anti-Huntingtin protein (MAB2166 from Millipore) and anti-alpha tubulin (AJ1034a from ABGENT). Blots are imaged on a Li-Cor Odyssey infrared imager. The bands intensities are determined by Li-Cor Odyssey software.
Using the protocol reported above, iPSCs were treated with HD143 at various doses for 24 hr. The cells were collected and lysed for protein quantification. Equal amounts of protein were applied on SDS-PAGE gel for Western Blotting. Mutant HTT protein was recognized by polyQ antibody (MAB1574 from Millipore) while wild type HTT protein was blotted by anti-Huntingtin antibody (MAB2166 from Millipore). Both proteins were scanned and quantified by Li-Cor Odyssey and normalized by tubulin.

Data set [3] deals with mutant HTT in lymphoblastoid cells GM14044. The experiment in a line: HD lymphoblastoid cell assay to assess mutant HTT reduction. It counts as cell-based, human. To be noted: 72 hours. How it is done:
3. HD Lymphoblastoid Cell Assay to Assess Mutant HTT Reduction
Lymphoblastoid cells GM14044, which are derived from Juvenile HD patient with around 250 CAG repeats in the mutant HTT allele, are used for lymphoblastoid cell assays. Lymphoblastoid cells are cultured as suspension cells. Right before the compound treatments, 5×10^5 cells/well are seeded into 24 well plate in 1.5 ml RPMI culture medium plus 10% fetal bovine serum. Compounds in serial dilutions are added into the well for the indicated final concentration. Cells are maintained in 37° C., 5% CO2 incubator for 72 hours
b. Compound Effect in Reducing mHTT (IC50)
The rest of the cell/medium mixture is removed from culture plate into a 1.5 ml microcentrifuge tube, then centrifuged at 2500 rpm for 2 minutes to remove the culture medium. Cell pallets are washed with 1×PBS, then stored at −80° C. until ready for Western blot analysis. Western blot analysis is performed as described above. The intensity of HTT from untreated cells is set as 100% and the IC50 of the compound is defined as the compound concentration at which the HTT protein was reduced to 50%.

The test system of data set [4] is Gmr-Htt97Q Drosophila HD model (mutant Htt). Kind of data set: eye morphology (rough eye) analysis in Drosophila HD model. It counts as in vivo, Drosophila melanogaster. Particulars: Gmr-Htt97Q/+ flies, 10 or 100 μM in media. As for the experimental part: The Drosophila melanogaster (fruit fly) HD models used in this set of experiments carry the coding sequence of human Httexon1 with 97 CAG repeats to mimic mutant Httof Huntington's disease (HD). The Gmr::Htt97Q fly, expressing mutant Htt primarily in the neurons of Drosophila compound eyes, has a severe degeneration of photoreceptor neurons and the phenotypic trait ‘rough eye’. All of the fly stocks and genetics crosses were maintained at 25° C. on standard cornmeal yeast agar media.
2. Eye Morphology (Rough Eye) Analysis
15 adult male flies (Gmr-Htt97Q/Gmr-Htt97Q or Gmr/Gmr) were crossed with 15 virgin female flies W1118(+/+) in a vial containing standard yeast agar media with testing compound (+)-HD143 in a concentration of 10 μM or 100 μM. Parent-flies were first removed from vials at day 7, followed by a collection of newly hatched flies for ‘rough eye’ analysis. The morphology of compound eyes was captured using a Leica DMR upright microscope equipped with a digital camera (CooISNAP 5.0, Photometrics). […]
FIG. 4A. The morphology of compound eye was analyzed in fruit flies treated with or without (+)-HD143. […] To quantify the appearance of “rough eye” in Gmr-Htt97Q/+ treated with 10 and 100 μM of (+)-HD143, ten flies were randomly picked from each group and the number of flies with “rough eye” phenotype were determined under microscope. […]

Turning to `Brc1ccc2[nH]c3c(c2c1)CCCC3NCc1ccccc1` (racemic) [racemic HD143, N-benzyl-6-bromo-2,3,4,9-tetrahydro-1H-carbazol-1-amine], the IC50 in data set [1] stood at 30 nM; in data set [3] it was 90 nM. The “effect on Supt4h/NGN interaction” value in data set [1] (split Gaussia luciferase complementation assay) is “interrupts the interaction between Sup4h and NGN”. In addition, the “[Brain]/[Plasma]” value in data set [2] is on record as 9 at 1 hour following a 5 mg/kg oral dose in rats. Moreover, the “Dose to reduce mutant HTT in HD iPSC” value in the data set on mutant HTT protein (24 hr) is “>=60 nm”. Moreover, the “effect on mutant HTT protein level in iPSC derived from a Huntington Disease patient” value (“effect on mutant HTT protein level” for short) in the data set with mutant HTT protein was “decreases mutant HTT protein”.

Turning to `Brc1ccc2[nH]c3c(c2c1)CCC[C@H]3NCc1ccccc1` [(R)-(+)-HD143, (R)-(+)-N-benzyl-6-bromo-2,3,4,9-tetrahydro-1H-carbazol-1-amine], 15 nM corresponded to half-maximal inhibition in data set [1] (IC50). Moreover, the “fold more potent than racemic HD143” value in data set [1] (ratio of IC50 values, split Gaussia luciferase assay) came out at 2 fold. Further, the “effect on mutant HTT protein level” value in the data set on mutant HTT protein is recorded as “significantly reduced mutant HTT protein level”. For the same compound, the “effect on neuron degeneration phenotypes (rough eye) of mutant Htt in Drosophila HD models” value in data set [4] is “alleviates neuron degeneration phenotypes”; in data set [4] (listed as (+)-HD143), “Alleviates Neuron Degeneration Phenotypes”.

In data set [1], `Brc1ccc2[nH]c3c(c2c1)CCC[C@@H]3NCc1ccccc1.Cl` [(S)-(−)-HD143, (S)-(−)-N-Benzyl-6-bromo-2,3,4,9-tetrahydro-1H-carbazol-1-amine Hydrochloride] showed an IC50 of 900 nM. In the data set on mutant HTT protein, the “effect on mutant HTT protein level” value is on record as “showed no activity”.

Values taken from US10882821B1, “Enantiomeric compound for the reduction of the deleterious activity of extended nucleotide repeat containing genes” (THE BOARD OF TRUSTEES OF THE LELAND STANFORD JUNIOR …, priority 2017, dated 2021).
